# Measured values: paper PMC3565318, “Catalytic Mechanism of Short Ethoxy Chain Nonylphenol Dehydrogenase Belonging to a Polyethylene Glycol Dehydrogenase Group in the GMC Oxidoreductase Family” (International Journal of Molecular Sciences, 2013)
# Target: T1, NPEO-DH (short ethoxy chain nonylphenol dehydrogenase) (Ensifer sp. AS08, UniProt Q2HXX0)
# T1 construct: gene pegdh; complete ORF (1659 bp, 553 residues) in pCold I, His-tag, expressed in E. coli BL21(DE3) pLysS, Ni-NTA purified; FAD flavoprotein
# Assay: stopped-flow, absorbance at […] nm
# Assay type: biochemical
# Conditions: electron acceptor; PEG 1000-reduced enzyme, 0.01 mM DCIP, 0.1 M Tris-HCl pH 8.0, 30 °C
# T1 sequence (Q2HXX0 entry or part of it): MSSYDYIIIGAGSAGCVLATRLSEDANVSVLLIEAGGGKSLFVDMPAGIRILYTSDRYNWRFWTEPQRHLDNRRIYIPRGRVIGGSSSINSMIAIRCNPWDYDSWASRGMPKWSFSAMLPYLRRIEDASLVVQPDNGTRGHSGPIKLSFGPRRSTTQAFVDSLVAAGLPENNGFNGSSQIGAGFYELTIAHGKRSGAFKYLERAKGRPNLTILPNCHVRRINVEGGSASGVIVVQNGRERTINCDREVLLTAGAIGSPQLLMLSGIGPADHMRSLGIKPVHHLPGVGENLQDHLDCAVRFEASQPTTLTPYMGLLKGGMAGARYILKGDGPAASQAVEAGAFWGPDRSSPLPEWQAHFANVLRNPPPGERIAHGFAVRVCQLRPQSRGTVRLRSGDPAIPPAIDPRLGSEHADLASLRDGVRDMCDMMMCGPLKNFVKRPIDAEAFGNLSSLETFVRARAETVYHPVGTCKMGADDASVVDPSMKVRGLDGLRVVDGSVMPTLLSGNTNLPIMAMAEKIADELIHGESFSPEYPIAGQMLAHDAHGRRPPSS
smiles,measurement,value
"O=C1C(Cl)=CC(=Nc2ccc(O)cc2)C=C1Cl [2,6-dichloroindophenol]","stopped-flow, absorbance at 600 nm",performed with the reduced form of enzyme (reduced flavin) and a minimal concentration of DCIP
